# Measurements reported in patent US9938281B2 (Merck Sharp & Dohme Corp., priority 2012, dated 2018).
# How the values were obtained:
# PI3K-alpha = target: T1, PI3K-alpha (Homo sapiens, UniProt P42336); assay: HTRF PI3K biochemical assay, alpha isoform; conditions: ratio PI3K-alpha IC50 value / PI3K-delta IC50 value
# T1 construct: purchased Upstate; Millipore 14-602
# PI3K-delta = target: T2, PI3K-delta (Homo sapiens, UniProt O00329); assay: HTRF PI3K biochemical assay, delta isoform; conditions: form screened (neutral or TFA salt) given, read-out: PI3Kdelta IC50
# T2 construct: purchased Upstate; Millipore 14-604
# T2 sequence (O00329 whole entry, canonical isoform): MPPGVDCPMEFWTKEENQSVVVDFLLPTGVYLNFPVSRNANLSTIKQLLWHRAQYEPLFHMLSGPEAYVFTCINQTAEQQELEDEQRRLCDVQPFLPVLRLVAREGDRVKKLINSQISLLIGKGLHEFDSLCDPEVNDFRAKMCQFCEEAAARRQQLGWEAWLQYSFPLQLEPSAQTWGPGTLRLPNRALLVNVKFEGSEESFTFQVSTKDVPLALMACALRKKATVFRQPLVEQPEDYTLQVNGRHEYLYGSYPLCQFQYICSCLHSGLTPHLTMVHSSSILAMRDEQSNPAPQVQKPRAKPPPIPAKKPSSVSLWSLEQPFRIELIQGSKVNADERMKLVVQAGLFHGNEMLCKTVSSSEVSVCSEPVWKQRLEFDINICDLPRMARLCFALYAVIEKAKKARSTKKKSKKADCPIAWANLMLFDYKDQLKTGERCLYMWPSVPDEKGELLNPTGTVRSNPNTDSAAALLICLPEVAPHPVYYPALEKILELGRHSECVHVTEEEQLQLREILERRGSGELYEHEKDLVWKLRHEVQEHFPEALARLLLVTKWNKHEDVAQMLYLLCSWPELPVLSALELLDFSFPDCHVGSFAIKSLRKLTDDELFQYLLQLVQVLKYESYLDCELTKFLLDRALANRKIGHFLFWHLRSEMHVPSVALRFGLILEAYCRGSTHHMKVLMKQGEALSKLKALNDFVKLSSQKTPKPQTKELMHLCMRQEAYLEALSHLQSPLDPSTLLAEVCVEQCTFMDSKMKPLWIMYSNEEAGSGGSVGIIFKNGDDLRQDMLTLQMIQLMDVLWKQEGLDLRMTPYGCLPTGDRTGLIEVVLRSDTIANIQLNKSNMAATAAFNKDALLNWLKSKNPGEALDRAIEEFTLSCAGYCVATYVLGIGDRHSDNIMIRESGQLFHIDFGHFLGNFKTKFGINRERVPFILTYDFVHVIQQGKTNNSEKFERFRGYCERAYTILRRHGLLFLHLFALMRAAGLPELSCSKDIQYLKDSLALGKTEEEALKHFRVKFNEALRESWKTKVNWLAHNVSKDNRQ
# T2 sequence (P27986 whole entry partner, canonical isoform): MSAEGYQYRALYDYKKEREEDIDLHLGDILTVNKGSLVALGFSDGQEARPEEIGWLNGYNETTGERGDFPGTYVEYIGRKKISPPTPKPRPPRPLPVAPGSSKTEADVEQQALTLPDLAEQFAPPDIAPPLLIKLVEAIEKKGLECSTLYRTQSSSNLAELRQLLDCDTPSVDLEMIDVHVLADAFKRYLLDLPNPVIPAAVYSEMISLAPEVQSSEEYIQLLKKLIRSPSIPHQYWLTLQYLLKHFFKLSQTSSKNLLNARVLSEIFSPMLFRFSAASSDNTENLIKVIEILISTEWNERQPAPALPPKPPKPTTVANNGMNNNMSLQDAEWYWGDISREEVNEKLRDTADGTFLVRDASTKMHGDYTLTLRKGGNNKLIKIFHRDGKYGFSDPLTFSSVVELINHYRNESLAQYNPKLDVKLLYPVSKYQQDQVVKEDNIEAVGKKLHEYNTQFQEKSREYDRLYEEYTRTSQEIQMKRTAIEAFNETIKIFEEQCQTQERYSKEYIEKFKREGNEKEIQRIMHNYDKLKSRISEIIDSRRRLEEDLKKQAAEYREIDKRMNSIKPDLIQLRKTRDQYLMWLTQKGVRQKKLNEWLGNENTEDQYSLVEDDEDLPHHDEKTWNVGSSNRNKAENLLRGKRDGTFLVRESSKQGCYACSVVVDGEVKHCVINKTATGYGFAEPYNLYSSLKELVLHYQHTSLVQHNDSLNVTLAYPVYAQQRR
# T1 sequence (P42336 whole entry, canonical isoform): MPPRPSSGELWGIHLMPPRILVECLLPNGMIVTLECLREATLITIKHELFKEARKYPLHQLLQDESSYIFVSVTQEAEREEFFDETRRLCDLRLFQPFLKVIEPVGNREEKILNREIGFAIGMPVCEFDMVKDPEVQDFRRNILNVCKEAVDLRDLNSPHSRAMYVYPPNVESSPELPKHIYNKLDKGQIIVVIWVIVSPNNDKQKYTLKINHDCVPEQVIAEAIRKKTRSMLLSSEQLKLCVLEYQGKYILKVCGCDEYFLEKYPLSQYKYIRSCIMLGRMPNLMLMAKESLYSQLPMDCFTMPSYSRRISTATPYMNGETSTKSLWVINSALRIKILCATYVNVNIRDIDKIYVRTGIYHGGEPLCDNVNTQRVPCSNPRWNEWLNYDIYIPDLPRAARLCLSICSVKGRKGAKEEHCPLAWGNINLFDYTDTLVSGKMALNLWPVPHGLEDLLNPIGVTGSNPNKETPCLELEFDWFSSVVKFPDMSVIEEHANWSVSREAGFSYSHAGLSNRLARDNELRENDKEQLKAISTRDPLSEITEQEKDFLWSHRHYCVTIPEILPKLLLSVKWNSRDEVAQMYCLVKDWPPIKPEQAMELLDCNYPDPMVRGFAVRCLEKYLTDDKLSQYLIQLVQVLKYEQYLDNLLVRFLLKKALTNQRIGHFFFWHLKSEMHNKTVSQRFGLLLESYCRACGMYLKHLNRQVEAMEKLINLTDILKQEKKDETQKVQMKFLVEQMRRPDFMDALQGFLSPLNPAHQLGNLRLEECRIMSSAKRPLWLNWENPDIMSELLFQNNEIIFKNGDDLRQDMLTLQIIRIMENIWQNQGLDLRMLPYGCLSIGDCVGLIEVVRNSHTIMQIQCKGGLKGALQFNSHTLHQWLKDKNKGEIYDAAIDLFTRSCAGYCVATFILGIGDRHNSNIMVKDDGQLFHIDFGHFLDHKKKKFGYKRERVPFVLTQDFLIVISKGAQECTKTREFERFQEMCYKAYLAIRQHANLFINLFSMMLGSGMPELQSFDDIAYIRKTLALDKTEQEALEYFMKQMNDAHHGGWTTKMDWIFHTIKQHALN
# T1 sequence (P27986 whole entry partner, canonical isoform): as the sequence (P27986 whole entry partner, canonical isoform) above
Structure (SMILES),Selectivity versus PI3Kalpha (PI3K-alpha),IC50 (PI3K-delta) [nM]
"CCn1c(-c2cnc(C)nc2)nc2c(NC3CN(C(=O)C4CC4)CC3C)ncnc21 (single isomer, unassigned) [Compound 2-87, N-[(3S,4R or 3R,4S)-1-(cyclopropylcarbonyl)-4-methylpyrrolidin-3-yl]-9-ethyl-8-(2-methylpyrimidin-5-yl)-9H-purin-6-amine]",>10,1.7
"CCC(=O)N1CC[C@H](Nc2ncnc3c2nc(-c2ccc4[nH]ccc4c2)n3C)C1 [Compound 3-8, (S)-1-(3-((8-(1H-indol-5-yl)-9-methyl-9H-purin-6-yl)amino)pyrrolidin-1-yl)propan-1-one]",>10,14
"CCn1c(-c2cnc(C)nc2)nc2c(NC3CN(C(=O)C4CC45CCCCC5)CC3C)ncnc21 (single isomer, unassigned) [Compound 2-88, 9-ethyl-8-(2-methylpyrimidin-5-yl)-N-[(3S,4R or 3R,4S)-4-methyl-1-((S and R)-spiro[2.5]oct-1-ylcarbonyl)pyrrolidin-3-yl]-9H-purin-6-amine]",>10,< 1
"CCn1c(-c2cnc(C)nc2)nc2c(N[C@H]3CCN(C(=O)C4NC(=O)C4(C)C)C3)ncnc21 (mixture of isomers) [Compound 2-67, (R and S)-4-{[(3S)-3-{[9-ethyl-8-(2-methylpyrimidin-5-yl)-9H-purin-6-yl]amino}pyrrolidin-1-yl]carbonyl}-3,3-dimethylazetidin-2-one]",>10,1.5
"CCn1c(-c2cnc(C)nc2)nc2c(N[C@H]3C[C@@H](C(=O)OC)N(C(=O)C4CC4)C3)ncnc21 [Compound 2-54, methyl (4S)-1-(cyclopropylcarbonyl)-4-{[9-ethyl-8-(2-methylpyrimidin-5-yl)-9H-purin-6-yl]amino}-L-prolinate]",>10,63
"CCn1c(-c2cnc(C)nc2)nc2c(NC3CN(C(=O)OC(C)(C)C)CC3(F)F)ncnc21 (racemic) [Compound 1-21, (R and S)-tert-butyl 4-{[9-ethyl-8-(2-methylpyrimidin-5-yl)-9H-purin-6-yl]amino}-3,3-difluoropyrrolidine-1-carboxylate]",>10,9.4
"CCn1c(-c2cnc(C)nc2)nc2c(N[C@H]3CCN(C(=O)C4(N)CC4)C3)ncnc21 [Compound 2-84, N-{(3S)-1-[(1-aminocyclopropyl)carbonyl]pyrrolidin-3-yl}-9-ethyl-8-(2-methylpyrimidin-5-yl)-9H-purin-6-amine]",>10,20
"CCn1c(-c2cnc(C)nc2)nc2c(N[C@H]3CCN(C(=O)C4CCCCN4)C3)ncnc21 (mixture of isomers) [Compound 2-83, 9-ethyl-8-(2-methylpyrimidin-5-yl)-N-[(3S)-1-((R and S)-piperidin-2-ylcarbonyl)pyrrolidin-3-yl]-9H-purin-6-amine]",>10,19
"CCn1c(-c2cnc(C)nc2)nc2c(N[C@H]3CCN(C(=O)C4(O)CCCC4)C3)ncnc21 [Compound 2-58, 1-{[(3S)-3-{[9-ethyl-8-(2-methylpyrimidin-5-yl)-9H-purin-6-yl]amino}pyrrolidin-1-yl]carbonyl}cyclopentanol]",>10,22
"CCn1c(-c2ccc(C(F)(F)F)nc2)nc2c(N[C@H]3CCN(C(=O)C4CCOC4)C3)ncnc21 (single isomer, unassigned) [Compound 2-101, 9-ethyl-N-{(3S)-1-[(3R or 3S)-tetrahydrofuran-3-ylcarbonyl]pyrrolidin-3-yl}-8-[6-(trifluoromethyl)pyridin-3-yl]-9H-purin-6-amine]",>10,< 1
"CCn1c(-c2cnc(C)nc2)nc2c(N[C@H]3CCN(C(=O)c4ocnc4C)C3)ncnc21 [Compound 2-74, 9-ethyl-N-{(3S)-1-[(4-methyl-1,3-oxazol-5-yl)carbonyl]pyrrolidin-3-yl}-8-(2-methylpyrimidin-5-yl)-9H-purin-6-amine]",>10,3.1
"CCC(=O)N1CC[C@H](Nc2ncnc3c2nc(-c2ncn(CC)c2C)n3C)C1 [Compound 3-12, 8-(1-ethyl-5-methyl-1H-imidazol-4-yl)-9-methyl-N-[(3S)-1-propanoylpyrrolidin-3-yl]-9H-purin-6-amine]",>10,690
"CCn1c(-c2ccc(C(F)(F)F)nc2)nc2c(N[C@H]3CCN(C(=O)OC(C)(C)C)C3)ncnc21 [Compound 1-22, tert-butyl (3S)-3-({9-ethyl-8-[6-(trifluoromethyl)pyridin-3-yl]-9H-purin-6-yl}amino)pyrrolidine-1-carboxylate]",>10,< 1
"CCn1c(-c2ccc(OC)nc2)nc2c(N[C@H]3CCN(C(=O)C4CC4)C3)ncnc21 [Compound 2-50, N-[(3S)-1-(cyclopropylcarbonyl)pyrrolidin-3-yl]-9-ethyl-8-(6-methoxypyridin-3-yl)-9H-purin-6-amine]",>10,< 1
"CCC(=O)N1CC[C@H](Nc2ncnc3c2nc(-c2cnc(OC)c(C)c2)n3C)C1 [Compound 2-12, (S)-1-(3-((8-(6-methoxy-5-methylpyridin-3-yl)-9-methyl-9H-purin-6-yl)amino)pyrrolidin-1-yl)propan-1-one]",>10,3.5
"CCn1c(-c2cnc(C)nc2)nc2c(N[C@H]3CCN(C(=O)C4CC(F)(F)C4)C3)ncnc21 [Compound 2-24, (S)-(3,3-difluorocyclobutyl)(3-((9-ethyl-8-(2-methylpyrimidin-5-yl)-9H-purin-6-yl)amino)pyrrolidin-1-yl)methanone]",>10,6.8
"CCC(=O)N1CC[C@H](Nc2ncnc3c2nc(-c2cnn(CC)c2C)n3C2CC2)C1 [Compound 2-16, (S)-1-(3-((9-cyclopropyl-8-(1-ethyl-5-methyl-1H-pyrazol-4-yl)-9H-purin-6-yl)amino)pyrrolidin-1-yl)propan-1-one]",>10,53

# Further lines, results first:
Selectivity versus PI3Kalpha (PI3K-alpha),IC50 (PI3K-delta) [nM],Structure (SMILES)
>10,14,"CCn1c(-c2cnc(C)nc2)nc2c(N[C@H]3C[C@H](C(=O)N(C)C)N(C(=O)C4CC4)C3)ncnc21 [Compound 15-2, (4S)-1-(cyclopropylcarbonyl)-4-{[9-ethyl-8-(2-methylpyrimidin-5-yl)-9H-purin-6-yl]amino}-N,N-dimethyl-D-prolinamide]"
>10,770,"CCn1c(CC(F)(F)F)nc2c(N[C@H]3CCN(C(=O)C4CC4)C3)ncnc21 [Compound 7-7, N-[(3S)-1-(cyclopropylcarbonyl)pyrrolidin-3-yl]-9-ethyl-8-(2,2,2-trifluoroethyl)-9H-purin-6-amine]"
>10,9.4,"CCn1c(-c2cnc(C)nc2)nc2c(N[C@H]3CCN(C(=O)NCC4CCS(=O)(=O)C4)C3)ncnc21 (mixture of isomers) [Compound 12-20, (3S)-N-[((S and R)-1,1-dioxidotetrahydrothiophen-3-yl)methyl]-3-{[9-ethyl-8-(2-methylpyrimidin-5-yl)-9H-purin-6-yl]amino}pyrrolidine-1-carboxamide]"
>10,35,"CCn1c(OC(C)C)nc2c(N[C@H]3CCN(C(=O)C4CC4)C3)ncnc21 [Compound 8-7, N-[(3S)-1-(cyclopropylcarbonyl)pyrrolidin-3-yl]-9-ethyl-8-(1-methylethoxy)-9H-purin-6-amine]"
>10,230,"CCn1c(CCOC)nc2c(N[C@H]3CCN(C(=O)C4CC4)C3)ncnc21 [Compound 7-22, N-[(3S)-1-(cyclopropylcarbonyl)pyrrolidin-3-yl]-9-ethyl-8-(2-methoxyethyl)-9H-purin-6-amine]"
>10,2.5,"CCn1c(-c2cnc(C)nc2)nc2c(N[C@H]3C[C@H](C(=O)O)N(C(=O)C4CC4)C3)ncnc21 [Compound 15-1, (4S)-1-(cyclopropylcarbonyl)-4-{[9-ethyl-8-(2-methylpyrimidin-5-yl)-9H-purin-6-yl]amino}-D-proline]"
>10,16,"CCn1c(-c2cnc(C)nc2)nc2c(N[C@H]3CCN(C(=O)NC4CCCCC4)C3)ncnc21 [Compound 12-16, (3S)-N-cyclohexyl-3-{[9-ethyl-8-(2-methylpyrimidin-5-yl)-9H-purin-6-yl]amino}pyrrolidine-1-carboxamide]"
>10,31,"CCNC(=O)c1nc2c(N[C@H]3CCN(C(=O)C4CC4)C3)ncnc2n1CC [Compound 6-19, 6-{[(3S)-1-(cyclopropylcarbonyl)pyrrolidin-3-yl]amino}-N,9-diethyl-9H-purine-8-carboxamide]"
>10,4.7,"CCc1ccnc(N2CC[C@H](Nc3ncnc4c3nc(-c3cnc(C)nc3)n4CC)C2)c1 [Compound 4-6, 9-ethyl-N-[(3S)-1-(4-ethylpyridin-2-yl)pyrrolidin-3-yl]-8-(2-methylpyrimidin-5-yl)-9H-purin-6-amine]"
>10,13,"CCOC(=O)CCNC(=O)N1CC[C@H](Nc2ncnc3c2nc(-c2cnc(C)nc2)n3CC)C1 [Compound 12-17, ethyl N-{[(3S)-3-{[9-ethyl-8-(2-methylpyrimidin-5-yl)-9H-purin-6-yl]amino}pyrrolidin-1-yl]carbonyl}-beta-alaninate]"
>10,12,"CCn1c(C(=O)N[C@H](C)C2CC2)nc2c(N[C@H]3CCN(C(=O)C4CC4)C3)ncnc21 [Compound 6-13, 6-{[(3S)-1-(cyclopropylcarbonyl)pyrrolidin-3-yl]amino}-N-[(1R)-1-cyclopropylethyl]-9-ethyl-9H-purine-8-carboxamide]"
>10,8.2,"CCn1c(Oc2ccc(OC)c(F)c2)nc2c(N[C@H]3CCN(C(=O)C4CC4)C3)ncnc21 [Compound 8-6, N-[(3S)-1-(cyclopropylcarbonyl)pyrrolidin-3-yl]-9-ethyl-8-(3-fluoro-4-methoxyphenoxy)-9H-purin-6-amine]"
